Key:
Plasmodium falciparum [1] = assay: Resistance index, ratio of IC50 for chloroquine-resistant asexual intraerythrocytic stage of Plasmodium falciparum Dd2 to IC50 for chloroquine-sensitive asexual intraerythrocytic stage of Plasmodium falciparum NF54; type: functional
L1210 = assay: Cytotoxicity against mouse L1210 cells assessed as inhibition of cell proliferation by Coulter counter analysis; type: cell-based
CCRF-CEM = assay: Cytotoxicity against human CEM cells assessed as inhibition of cell proliferation by Coulter counter analysis; type: cell-based
HeLa = assay: Cytotoxicity against human HeLa cells assessed as inhibition of cell proliferation by Coulter counter analysis; type: cell-based
[2] = Selectivity index, ratio of IC50 for human HeLa cells to IC50 for chloroquine-sensitive asexual intraerythrocytic stage of Plasmodium falciparum NF54; type: toxicity, cell-based; settings: read-out: Ratio IC50
[3] = Selectivity index, ratio of IC50 for human HeLa cells to IC50 for chloroquine-resistant asexual intraerythrocytic stage of Plasmodium falciparum Dd2; type: toxicity, cell-based; settings: read-out: Ratio IC50
[4] = Cytotoxicity against human HEL cells assessed as alteration of normal cell morphology by microscopic analysis; type: cell-based
[5] = Cytotoxicity against human HEL cells assessed as inhibition of cell viability by colorimetric formazan-based MTS assay
[6] = Cytotoxicity against human HeLa cells assessed as alteration of normal cell morphology by microscopic analysis; type: cell-based
[7] = Cytotoxicity against african green monkey Vero cells assessed as alteration of normal cell morphology by microscopic analysis; type: cell-based; settings: chlorocebus sabaeus
Human alphaherpesvirus 1 [8] = type: functional, cell-based; settings: Human alphaherpesvirus 1, KOS, HEL
Human alphaherpesvirus 2 = type: functional, cell-based; settings: Human alphaherpesvirus 2, G, HEL
Human alphaherpesvirus 1 [9] = type: functional, cell-based; settings: Human alphaherpesvirus 1, KOS, HEL; remark: listed apart in the source
unidentified adenovirus = type: functional, cell-based; settings: HEL
Coxsackievirus [10] = type: functional, cell-based; settings: B4, HeLa
Human orthopneumovirus = type: functional, cell-based; settings: human respiratory syncytial virus, HeLa
Human respirovirus 3 = type: functional; settings: Human respirovirus 3, Vero
[11] = test system: Mammalian orthoreovirus 1; type: functional; settings: Mammalian orthoreovirus 1, Vero
Sindbis virus = type: functional; settings: Vero
Coxsackievirus [12] = type: functional; settings: B4, Vero
Punta Toro virus = type: functional; settings: Vero
Human betaherpesvirus 5 [13] = type: functional, cell-based; settings: Human betaherpesvirus 5, AD169, HEL
Human betaherpesvirus 5 [14] = type: functional, cell-based; settings: Human betaherpesvirus 5, Davis, HEL
Human alphaherpesvirus 3 [15] = type: functional, cell-based; settings: Human alphaherpesvirus 3, strain Oka vaccine, HEL
Human alphaherpesvirus 3 [16] = type: functional, cell-based; settings: Human alphaherpesvirus 3, 07-1, HEL
[17] = Cytotoxicity against MDCK cells assessed as alteration of normal cell morphology by microscopic analysis; type: cell-based, Canis lupus familiaris; settings: dog
[18] = Cytotoxicity against MDCK cells assessed as inhibition of cell viability by colorimetric formazan-based MTS assay; design: species or system Canis lupus familiaris; settings: dog
Plasmodium falciparum [19] = assay: microbe, parasite or virus in culture; settings: NF54
Plasmodium falciparum [20] = assay: microbe, parasite or virus in culture; settings: Dd2
Vaccinia virus = assay: microbe, parasite or virus in culture; settings: Orthopoxvirus vaccinia, HEL
[21] = test system: Vesicular stomatitis virus; assay: microbe, parasite or virus in culture; settings: HEL
[22] = test system: Vesicular stomatitis virus; assay: microbe, parasite or virus in culture; settings: HeLa
Influenza A virus [23] = assay: microbe, parasite or virus in culture; settings: H1N1, MDCK
Influenza A virus [24] = assay: microbe, parasite or virus in culture; settings: H3N2, MDCK
Influenza B virus = assay: microbe, parasite or virus in culture; settings: MDCK

| Compound | Ratio IC50 (Plasmodium falciparum [1]) | IC50 (L1210) | IC50 (CCRF-CEM) | IC50 (HeLa) | selectivity ratio [2] | selectivity ratio [3] | MCC [4] | CC50 [5] | MCC [6] | MCC [7] | EC50 (Human alphaherpesvirus 1 [8]) | EC50 (Human alphaherpesvirus 2) | EC50 (Human alphaherpesvirus 1 [9]) | EC50 (unidentified adenovirus) | EC50 (Coxsackievirus [10]) | EC50 (Human orthopneumovirus) | EC50 (Human respirovirus 3) | EC50 [11] | IC50 (Plasmodium falciparum [19]) | IC50 (Plasmodium falciparum [20]) | other results |
| --- | --- | --- | --- | --- | --- | --- | --- | --- | --- | --- | --- | --- | --- | --- | --- | --- | --- | --- | --- | --- | --- |
| CSc1nc(NCCCCNc2ccnc3cc(Cl)ccc23)c(C#N)c(-c2ccccc2)n1 | 2.71 | 4.4 µM | 5.2 µM | 8.5 µM | 78.3 | 28.7 | 4 to 20 µM | 8.2 µM | 100 µM | 20 µM | > 0.8 µM | > 0.8 µM | > 0.8 µM | > 4 µM | > 20 µM | > 20 µM | > 4 µM | > 4 µM | 0.109 µM | 0.295 µM | EC50 (Sindbis virus): > 4 µM; EC50 (Coxsackievirus [12]): > 4 µM; EC50 (Punta Toro virus): > 4 µM; EC50 (Human betaherpesvirus 5 [13]): > 4 µM; EC50 (Human betaherpesvirus 5 [14]): > 4 µM; EC50 (Human alphaherpesvirus 3 [15]): > 4 µM; EC50 (Human alphaherpesvirus 3 [16]): > 4 µM; MCC [17]: 20 µM; CC50 [18]: 10.7 µM; EC50 (Vaccinia virus): > 0.8 µM; EC50 [21]: > 0.8 µM; EC50 [22]: > 20 µM; EC50 (Influenza A virus [23]): > 4 µM; EC50 (Influenza A virus [24]): > 4 µM; EC50 (Influenza B virus): > 4 µM |
| CSc1nc(NCCCNc2ccnc3cc(Cl)ccc23)c(C#N)c(-c2ccccc2)n1 | 2.38 | 4.7 µM | 4.7 µM | 11 µM | 82.3 | 34.4 | 20 µM | 43.4 µM | 100 µM | 100 µM | > 4 µM | > 4 µM | > 4 µM | > 20 µM | > 20 µM | > 20 µM | > 20 µM | > 20 µM | 0.134 µM | 0.319 µM | EC50 (Sindbis virus): > 20 µM; EC50 (Coxsackievirus [12]): > 20 µM; EC50 (Punta Toro virus): > 20 µM; EC50 (Human betaherpesvirus 5 [13]): > 4 µM; EC50 (Human betaherpesvirus 5 [14]): > 4 µM; EC50 (Human alphaherpesvirus 3 [15]): > 4 µM; EC50 (Human alphaherpesvirus 3 [16]): > 4 µM; MCC [17]: 20 µM; CC50 [18]: 10.3 µM; EC50 (Vaccinia virus): > 4 µM; EC50 [21]: > 4 µM; EC50 [22]: > 20 µM; EC50 (Influenza A virus [23]): > 4 µM; EC50 (Influenza A virus [24]): > 4 µM; EC50 (Influenza B virus): > 4 µM |
| CSc1nc(OCCCNc2ccnc3cc(Cl)ccc23)c(C#N)c(-c2ccccc2)n1 | 2.34 | 3.9 µM | 3.3 µM | 3.4 µM | 38.3 | 16.3 | 4 µM | 1.7 µM | 4 µM | 4 µM | > 0.8 µM | > 0.8 µM | > 0.8 µM | > 0.8 µM | > 0.8 µM | > 0.8 µM | > 0.8 µM | > 0.8 µM | 0.0888 µM | 0.208 µM | EC50 (Sindbis virus): > 0.8 µM; EC50 (Coxsackievirus [12]): > 0.8 µM; EC50 (Punta Toro virus): > 0.8 µM; EC50 (Human betaherpesvirus 5 [13]): > 0.8 µM; EC50 (Human betaherpesvirus 5 [14]): > 0.8 µM; EC50 (Human alphaherpesvirus 3 [15]): > 0.8 µM; EC50 (Human alphaherpesvirus 3 [16]): > 0.8 µM; MCC [17]: 4 µM; CC50 [18]: 2.1 µM; EC50 (Vaccinia virus): > 0.8 µM; EC50 [21]: > 0.8 µM; EC50 [22]: > 0.8 µM; EC50 (Influenza A virus [23]): > 0.8 µM; EC50 (Influenza A virus [24]): > 0.8 µM; EC50 (Influenza B virus): > 0.8 µM |
| COc1ccc(-c2nc(SC)nc(NCCCCNc3ccnc4cc(Cl)ccc34)c2C#N)cc1 | 13.92 | 3.2 µM | 2.7 µM | 3.4 µM | 30.9 | 2.2 | 4 to 20 µM | 7.9 µM | 20 µM | 20 µM | > 0.8 µM | > 0.8 µM | > 0.8 µM | > 4 µM | > 4 µM | > 4 µM | > 4 µM | > 4 µM | 0.11 µM | 1.53 µM | EC50 (Sindbis virus): > 4 µM; EC50 (Coxsackievirus [12]): > 4 µM; EC50 (Punta Toro virus): > 4 µM; EC50 (Human betaherpesvirus 5 [13]): > 4 µM; EC50 (Human betaherpesvirus 5 [14]): > 4 µM; EC50 (Human alphaherpesvirus 3 [15]): > 4 µM; EC50 (Human alphaherpesvirus 3 [16]): > 4 µM; MCC [17]: 20 µM; CC50 [18]: 10 µM; EC50 (Vaccinia virus): > 0.8 µM; EC50 [21]: > 0.8 µM; EC50 [22]: > 4 µM; EC50 (Influenza A virus [23]): > 4 µM; EC50 (Influenza A virus [24]): > 4 µM; EC50 (Influenza B virus): > 4 µM |
| C[C@H]1[C@H](OC(=O)CCC(=O)O)O[C@@H]2O[C@@]3(C)CC[C@H]4[C@H](C)CC[C@@H]1[C@@]24OO3 [ARTESUNATE] | 1.38 |  |  |  |  |  |  |  |  |  |  |  |  |  |  |  |  |  | 0.0126 µM | 0.0174 µM |  |

Source: ChEMBL document CHEMBL4000146, “Synthesis, antiplasmodial activity and mechanistic studies of pyrimidine-5-carbonitrile and quinoline hybrids” (Eur J Med Chem, 2015)
